Measured values: PMC4051630, “A Comparison of Protein Kinases Inhibitor Screening Methods Using Both Enzymatic Activity and Binding Affinity Determination” (PLoS ONE, 2014)

Experiments:
Assay in all cases: Differential Scanning Fluorimetry (DSF) Tm shift
Format in all cases: binding
AKT3 Catalytic Domain = biological target: T1, AKT3 Catalytic Domain (Homo sapiens, UniProt Q9Y243); conditions: 2 µM protein, 10 µM inhibitor, average of 3 experiments, each in duplicate
T1 construct: AKT3 (Q9Y243); CD; His-tag; made in house; host or cells: Escherichia coli

CHK2 Catalytic Domain = biological target: T2, CHK2 Catalytic Domain (Homo sapiens, UniProt O96017); conditions: 2 µM protein, 10 µM inhibitor, average of 3 experiments, each in duplicate
T2 construct: For all of them, we expressed and purified the catalytic domain separately; His-tag; made in house; host or cells: Escherichia coli

DMPK Catalytic Domain = biological target: T3, DMPK Catalytic Domain (Homo sapiens, UniProt Q09013); conditions: 2 µM protein, 10 µM inhibitor, average of 3 experiments, each in duplicate
T3 construct: For all of them, we expressed and purified the catalytic domain separately; His-tag; made in house; host or cells: Escherichia coli
T3 sequence (Q09013 71-339 limits assumed): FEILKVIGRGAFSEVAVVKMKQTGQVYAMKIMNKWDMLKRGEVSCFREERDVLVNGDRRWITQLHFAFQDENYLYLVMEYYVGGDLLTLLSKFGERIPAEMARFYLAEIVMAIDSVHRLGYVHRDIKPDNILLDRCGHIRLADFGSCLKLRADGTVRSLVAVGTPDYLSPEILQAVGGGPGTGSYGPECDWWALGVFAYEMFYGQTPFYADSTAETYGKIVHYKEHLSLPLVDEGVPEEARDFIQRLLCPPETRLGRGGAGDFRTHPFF

FAK2 Catalytic Domain = biological target: T4, FAK2 Catalytic Domain (Homo sapiens, UniProt Q14289); conditions: 2 µM protein, 10 µM inhibitor, average of 3 experiments, each in duplicate
T4 construct: For all of them, we expressed and purified the catalytic domain separately; His-tag; made in house; host or cells: Escherichia coli

FES Catalytic Domain+SH2 = biological target: T5, FES Catalytic Domain+SH2 (Homo sapiens, UniProt P07332); conditions: 2 µM protein, 10 µM inhibitor, average of 3 experiments, each in duplicate
T5 construct: for 8, we also made a longer version containing one or more additional domains; His-tag; made in house; host or cells: Escherichia coli

FES Catalytic Domain = biological target: T6, FES Catalytic Domain (Homo sapiens, UniProt P07332); conditions: 2 µM protein, 10 µM inhibitor, average of 3 experiments, each in duplicate
T6 construct: For all of them, we expressed and purified the catalytic domain separately; His-tag; made in house; host or cells: Escherichia coli

[1] = biological target: T7, PAK4 Catalytic Domain+PBD (Homo sapiens, UniProt O96013); conditions: 2 µM protein, 10 µM inhibitor, average of 3 experiments, each in duplicate
T7 construct: for 8, we also made a longer version containing one or more additional domains; His-tag; made in house; host or cells: Escherichia coli

PAK4 Catalytic Domain = biological target: T8, PAK4 Catalytic Domain (Homo sapiens, UniProt O96013); conditions: 2 µM protein, 10 µM inhibitor, average of 3 experiments, each in duplicate
T8 construct: For all of them, we expressed and purified the catalytic domain separately; His-tag; made in house; host or cells: Escherichia coli

PAK7 Catalytic Domain = biological target: T9, PAK7 Catalytic Domain (Homo sapiens, UniProt Q9P286); conditions: 2 µM protein, 10 µM inhibitor, average of 3 experiments, each in duplicate
T9 construct: For all of them, we expressed and purified the catalytic domain separately; His-tag; made in house; host or cells: Escherichia coli

[2] = biological target: T10, STK3 Catalytic domain+SARAH (Homo sapiens, UniProt Q13188); conditions: 2 µM protein, 10 µM inhibitor, average of 3 experiments, each in duplicate
T10 construct: for 8, we also made a longer version containing one or more additional domains; His-tag; made in house; host or cells: Escherichia coli
T10 sequence (Q13188 1-491): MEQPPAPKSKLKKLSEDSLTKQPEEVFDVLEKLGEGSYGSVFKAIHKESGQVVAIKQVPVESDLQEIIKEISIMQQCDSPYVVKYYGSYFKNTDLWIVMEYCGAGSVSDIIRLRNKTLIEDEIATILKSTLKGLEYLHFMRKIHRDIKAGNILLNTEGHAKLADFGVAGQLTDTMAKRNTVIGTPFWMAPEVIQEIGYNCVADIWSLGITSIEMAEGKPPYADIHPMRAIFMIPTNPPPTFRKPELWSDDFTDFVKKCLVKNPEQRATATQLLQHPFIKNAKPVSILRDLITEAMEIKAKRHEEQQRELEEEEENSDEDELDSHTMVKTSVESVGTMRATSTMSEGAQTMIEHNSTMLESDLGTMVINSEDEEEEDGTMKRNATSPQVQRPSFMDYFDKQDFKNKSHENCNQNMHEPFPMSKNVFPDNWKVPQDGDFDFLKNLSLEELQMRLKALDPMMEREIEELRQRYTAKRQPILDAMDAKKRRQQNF

STK3 Catalytic Domain = biological target: T11, STK3 Catalytic Domain (Homo sapiens, UniProt Q13188); conditions: 2 µM protein, 10 µM inhibitor, average of 3 experiments, each in duplicate
T11 construct: For all of them, we expressed and purified the catalytic domain separately; His-tag; made in house; host or cells: Escherichia coli
T11 sequence (Q13188 27-278 limits assumed): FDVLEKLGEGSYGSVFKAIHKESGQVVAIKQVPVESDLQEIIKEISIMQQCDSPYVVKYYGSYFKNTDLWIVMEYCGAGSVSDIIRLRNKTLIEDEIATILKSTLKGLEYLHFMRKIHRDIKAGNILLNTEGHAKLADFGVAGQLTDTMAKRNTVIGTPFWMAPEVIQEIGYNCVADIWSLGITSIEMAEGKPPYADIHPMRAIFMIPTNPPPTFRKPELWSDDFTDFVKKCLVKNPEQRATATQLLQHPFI

CDK2 + Cyclin A = biological target: T12, CDK2 + Cyclin A (Homo sapiens, UniProt P24941); conditions: CDK2 + Cyclin A; 2 µM protein, 10 µM inhibitor; average of 3 experiments, each in duplicate
T12 construct: CDK2 (P24941); 1–299; His-tag; made in house; host or cells: Escherichia coli

[3] = biological target: SRC Catalytic Domain+SH2+SH3 (Homo sapiens, UniProt P12931); conditions: 2 µM protein, 10 µM inhibitor, average of 3 experiments, each in duplicate
SRC Catalytic Domain+SH2+SH3, sequence (P12931 84-523 limits assumed): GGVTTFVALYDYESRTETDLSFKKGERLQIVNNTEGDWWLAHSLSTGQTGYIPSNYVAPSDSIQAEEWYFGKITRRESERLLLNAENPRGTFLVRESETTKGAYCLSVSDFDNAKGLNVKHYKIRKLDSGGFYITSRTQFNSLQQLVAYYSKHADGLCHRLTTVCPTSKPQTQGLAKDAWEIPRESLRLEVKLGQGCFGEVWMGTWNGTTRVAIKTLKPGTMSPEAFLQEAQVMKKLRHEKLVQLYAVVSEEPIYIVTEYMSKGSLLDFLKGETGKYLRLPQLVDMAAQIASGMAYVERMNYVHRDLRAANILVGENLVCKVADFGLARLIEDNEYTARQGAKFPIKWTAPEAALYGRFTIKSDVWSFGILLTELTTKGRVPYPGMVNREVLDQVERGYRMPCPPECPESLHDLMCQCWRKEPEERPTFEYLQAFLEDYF

T7 sequence (O96013 whole entry, the tested form may be a part): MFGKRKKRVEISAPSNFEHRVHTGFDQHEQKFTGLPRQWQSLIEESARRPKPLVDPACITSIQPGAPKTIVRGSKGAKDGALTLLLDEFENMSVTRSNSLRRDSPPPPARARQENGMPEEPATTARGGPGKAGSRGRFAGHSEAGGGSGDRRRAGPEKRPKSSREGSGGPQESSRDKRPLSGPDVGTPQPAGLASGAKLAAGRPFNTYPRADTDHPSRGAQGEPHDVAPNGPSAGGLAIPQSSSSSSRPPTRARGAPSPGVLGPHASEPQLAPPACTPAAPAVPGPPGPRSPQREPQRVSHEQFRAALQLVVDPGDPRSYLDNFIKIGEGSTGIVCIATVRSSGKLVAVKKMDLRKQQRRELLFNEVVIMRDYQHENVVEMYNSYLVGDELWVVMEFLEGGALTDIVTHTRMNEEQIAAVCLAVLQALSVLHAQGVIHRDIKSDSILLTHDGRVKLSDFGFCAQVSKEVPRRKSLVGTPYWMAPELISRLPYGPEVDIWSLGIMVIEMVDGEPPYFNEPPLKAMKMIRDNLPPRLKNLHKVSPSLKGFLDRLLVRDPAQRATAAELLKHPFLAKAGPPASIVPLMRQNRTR
T1 sequence (Q9Y243 122-479): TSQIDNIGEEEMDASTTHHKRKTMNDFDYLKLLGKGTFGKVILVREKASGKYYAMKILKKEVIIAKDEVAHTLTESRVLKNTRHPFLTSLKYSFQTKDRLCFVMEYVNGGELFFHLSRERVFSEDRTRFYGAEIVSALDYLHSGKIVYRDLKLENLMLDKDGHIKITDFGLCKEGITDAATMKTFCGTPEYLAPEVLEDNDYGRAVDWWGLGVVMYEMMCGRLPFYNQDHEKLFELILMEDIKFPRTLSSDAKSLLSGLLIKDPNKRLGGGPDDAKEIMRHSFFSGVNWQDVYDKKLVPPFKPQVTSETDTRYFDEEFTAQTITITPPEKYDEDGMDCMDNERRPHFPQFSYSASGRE
T5 sequence (P07332 448-822 limits assumed): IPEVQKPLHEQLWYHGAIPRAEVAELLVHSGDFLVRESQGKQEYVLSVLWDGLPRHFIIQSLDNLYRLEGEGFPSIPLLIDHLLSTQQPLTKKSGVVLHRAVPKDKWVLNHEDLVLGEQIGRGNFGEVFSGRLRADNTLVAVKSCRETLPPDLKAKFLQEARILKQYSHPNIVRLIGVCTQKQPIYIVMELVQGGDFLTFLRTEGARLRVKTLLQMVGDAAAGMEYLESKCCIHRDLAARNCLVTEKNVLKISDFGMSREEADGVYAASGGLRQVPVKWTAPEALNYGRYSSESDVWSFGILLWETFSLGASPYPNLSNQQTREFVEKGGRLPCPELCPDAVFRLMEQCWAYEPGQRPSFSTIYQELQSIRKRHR
T2 sequence (O96017 220-486 limits assumed): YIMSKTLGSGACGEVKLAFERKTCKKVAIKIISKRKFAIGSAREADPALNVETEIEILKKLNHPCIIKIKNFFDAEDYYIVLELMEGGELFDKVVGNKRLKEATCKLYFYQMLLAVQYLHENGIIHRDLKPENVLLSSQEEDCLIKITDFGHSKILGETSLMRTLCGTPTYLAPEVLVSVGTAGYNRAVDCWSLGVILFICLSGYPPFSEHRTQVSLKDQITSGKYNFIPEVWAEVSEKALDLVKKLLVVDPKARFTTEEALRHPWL
T6 sequence (P07332 561-822 limits assumed): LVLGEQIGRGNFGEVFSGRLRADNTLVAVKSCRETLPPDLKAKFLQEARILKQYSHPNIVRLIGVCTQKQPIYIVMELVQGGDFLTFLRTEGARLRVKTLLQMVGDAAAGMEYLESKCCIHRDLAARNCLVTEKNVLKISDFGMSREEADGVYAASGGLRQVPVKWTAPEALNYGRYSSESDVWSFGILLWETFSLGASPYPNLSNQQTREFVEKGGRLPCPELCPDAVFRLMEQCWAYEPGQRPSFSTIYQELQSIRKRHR
T4 sequence (Q14289 425-683 limits assumed): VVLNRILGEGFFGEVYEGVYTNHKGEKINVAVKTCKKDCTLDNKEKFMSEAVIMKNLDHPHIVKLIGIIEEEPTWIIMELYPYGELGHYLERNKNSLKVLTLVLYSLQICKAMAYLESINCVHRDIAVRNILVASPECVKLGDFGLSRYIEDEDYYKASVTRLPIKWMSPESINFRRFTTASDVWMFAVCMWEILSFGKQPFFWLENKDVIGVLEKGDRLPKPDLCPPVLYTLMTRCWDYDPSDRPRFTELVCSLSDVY
T8 sequence (O96013 321-572 limits assumed): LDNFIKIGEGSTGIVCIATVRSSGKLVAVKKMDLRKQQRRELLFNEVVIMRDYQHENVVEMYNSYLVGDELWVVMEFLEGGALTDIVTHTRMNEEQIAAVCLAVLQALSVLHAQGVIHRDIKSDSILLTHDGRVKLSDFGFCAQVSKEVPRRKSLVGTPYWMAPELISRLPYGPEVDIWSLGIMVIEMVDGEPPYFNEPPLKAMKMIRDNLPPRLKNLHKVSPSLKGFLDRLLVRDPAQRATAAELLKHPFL
T9 sequence (Q9P286 449-700 limits assumed): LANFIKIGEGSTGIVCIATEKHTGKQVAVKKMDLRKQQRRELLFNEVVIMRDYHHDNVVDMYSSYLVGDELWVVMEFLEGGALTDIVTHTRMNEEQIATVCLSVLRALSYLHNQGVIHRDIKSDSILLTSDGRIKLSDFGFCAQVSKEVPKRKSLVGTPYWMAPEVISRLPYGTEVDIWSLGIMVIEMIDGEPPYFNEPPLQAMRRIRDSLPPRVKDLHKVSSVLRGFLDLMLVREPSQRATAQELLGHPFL

Molecule	Melting temperature (Tm) shift (AKT3 Catalytic Domain)	Melting temperature (Tm) shift (CHK2 Catalytic Domain)	Melting temperature (Tm) shift (DMPK Catalytic Domain)	Melting temperature (Tm) shift (FAK2 Catalytic Domain)	Melting temperature (Tm) shift (FES Catalytic Domain+SH2)	Melting temperature (Tm) shift (FES Catalytic Domain)	Melting temperature (Tm) shift [1]	Melting temperature (Tm) shift (PAK4 Catalytic Domain)	Melting temperature (Tm) shift (PAK7 Catalytic Domain)	Melting temperature (Tm) shift [2]	Melting temperature (Tm) shift (STK3 Catalytic Domain)	Melting temperature (Tm) shift (CDK2 + Cyclin A)	Melting temperature (Tm) shift [3]
CC[C@@H](CO)Nc1nc(NCc2ccccc2)c2ncn(C(C)C)c2n1 (single isomer, unassigned) [Roscovitine, (S)-Isomer]	0.0 degrees Celcius	0.6 degrees Celcius	0.3 degrees Celcius	0.2 degrees Celcius	0.9 degrees Celcius	1.2 degrees Celcius	2.6 degrees Celcius	1.4 degrees Celcius	0.7 degrees Celcius	0.0 degrees Celcius	0.0 degrees Celcius	–	–
O=C1NC(=O)c2c1c1c3ccccc3[nH]c1c1[nH]c3ccccc3c21 [Arcyriaflavin A, Synthetic, Arcyriaflavin A]	0.0 degrees Celcius	–	–	–	–	–	0.5 degrees Celcius	0.2 degrees Celcius	–	–	–	–	–
CN(C)c1nc2c(Br)c(Br)c(Br)c(Br)c2[nH]1 [Casein Kinase II Inhibitor II, DMAT]	–	0.3 degrees Celcius	0.4 degrees Celcius	3.2 degrees Celcius	–	–	0.3 degrees Celcius	0.2 degrees Celcius	4.1 degrees Celcius	0.4 degrees Celcius	0.3 degrees Celcius	0.5 degrees Celcius	0.9 degrees Celcius
Brc1c(Br)c(Br)c2n[nH]nc2c1Br [Casein Kinase II Inhibitor I]	0.1 degrees Celcius	2.2 degrees Celcius	0.6 degrees Celcius	0.1 degrees Celcius	0.8 degrees Celcius	0.0 degrees Celcius	0.9 degrees Celcius	0.2 degrees Celcius	–	0.4 degrees Celcius	1.1 degrees Celcius	–	0.2 degrees Celcius
O=c1c2ccccc2[nH]c(=S)n1CCN1CCC(=C(c2ccc(F)cc2)c2ccc(F)cc2)CC1 [Diacylglycerol Kinase Inhibitor II]	–	–	–	–	–	0.7 degrees Celcius	0.2 degrees Celcius	–	–	–	–	–	–
CC#CC(=O)Nc1cc2c(Nc3ccc(F)c(Cl)c3)ncnc2cn1 [EGFR/ErbB-2/ErbB-4 Inhibitor]	0.0 degrees Celcius	0.3 degrees Celcius	–	–	–	0.0 degrees Celcius	0.1 degrees Celcius	–	0.0 degrees Celcius	–	0.2 degrees Celcius	–	0.0 degrees Celcius
O=C1c2ccccc2-[n+]2ccc3c([nH]c4ccccc43)c21 [Fascaplysin, Synthetic, Fascaplysin]	0.1 degrees Celcius	–	0.4 degrees Celcius	–	0.0 degrees Celcius	0.2 degrees Celcius	–	–	–	–	–	–	–
CC(=O)O/N=C1/C(=C2/C(=O)Nc3cc(Br)ccc32)Nc2ccccc21 [GSK-3 Inhibitor X]	0.1 degrees Celcius	–	0.5 degrees Celcius	–	0.0 degrees Celcius	0.4 degrees Celcius	1.0 degrees Celcius	0.6 degrees Celcius	0.1 degrees Celcius	0.5 degrees Celcius	–	–	–
COc1ccc2c(c1)c1c3c(c4c5ccccc5n(C)c4c1n2CC(O)CN(C)C)C(=O)NC3=O.Cl (stereo not shown) [Gö 7874, Hydrochloride]	0.2 degrees Celcius	1.1 degrees Celcius	0.2 degrees Celcius	0.7 degrees Celcius	0.0 degrees Celcius	0.3 degrees Celcius	0.1 degrees Celcius	–	0.1 degrees Celcius	2.2 degrees Celcius	1.4 degrees Celcius	0.2 degrees Celcius	–
O=C1Nc2ccc(I)cc2/C1=C1/Nc2ccccc2/C1=N\O [Indirubin-3ʹ′-monoxime, 5-Iodo-, Indirubin-3′ -monoxime, 5-Iodo-]	–	–	–	–	–	–	2.3 degrees Celcius	0.3 degrees Celcius	–	5.6 degrees Celcius	1.2 degrees Celcius	–	–
O=C1C(Cl)=C(N2C(=O)CCC2=O)C(=O)c2ccccc21 [MEK Inhibitor II]	0.3 degrees Celcius	0.0 degrees Celcius	–	–	0.0 degrees Celcius	0.0 degrees Celcius	–	0.0 degrees Celcius	0.0 degrees Celcius	0.1 degrees Celcius	–	0.1 degrees Celcius	0.0 degrees Celcius
O.O=C1NCCc2[nH]c(-c3ccnc(-c4cnc5ccccc5c4)c3)cc21 [MK-2 Inhibitor III]	0.0 degrees Celcius	1.2 degrees Celcius	0.3 degrees Celcius	0.1 degrees Celcius	–	–	0.1 degrees Celcius	0.0 degrees Celcius	0.0 degrees Celcius	0.4 degrees Celcius	0.0 degrees Celcius	0.1 degrees Celcius	0.1 degrees Celcius
O=C1NC(=O)/C(=C/c2ccc3nccnc3c2)S1 [PI 3-Kg Inhibitor]	0.0 degrees Celcius	0.4 degrees Celcius	0.8 degrees Celcius	–	0.1 degrees Celcius	0.1 degrees Celcius	–	0.1 degrees Celcius	0.0 degrees Celcius	0.1 degrees Celcius	0.1 degrees Celcius	0.2 degrees Celcius	0.0 degrees Celcius
Akt Inhibitor VIII, Isozyme-Selective, Akti-1/2	–	0.4 degrees Celcius	–	0.1 degrees Celcius	–	–	–	–	0.0 degrees Celcius	–	–	0.2 degrees Celcius	–
